# Values of other authors as cited in publication PMC6696021, “Combined Ensemble Docking and Machine Learning in Identification of Therapeutic Agents with Potential Inhibitory Effect on Human CES1” (Molecules, 2019).
# Molecular target: CES1
# Parameters: method as in earlier work
# Conditions: Table S1, bioactivity from ChEMBL database; read-out: Ki_Nanomolar; cited from earlier work
row,Compound,Ki
1,O=C(c1cccs1)C(O)c1cccs1 (centres unmarked) [CHEMBL190660],3100 nM
2,O=C(C(=O)c1cccc([N+](=O)[O-])c1)c1cccc([N+](=O)[O-])c1 [CHEMBL191796],18100 nM
3,O=C(C(=O)c1ccccc1Cl)c1ccccc1Cl [CHEMBL365392],1650 nM
4,O=C(Nc1cccc(C(=O)C(=O)c2ccccn2)c1)c1ccc(F)c(F)c1 [CHEMBL1630811],1240 nM
5,CCCCCC(=O)C(=O)CCCCC [CHEMBL1812856],3 nM
6,CCCCCCS(=O)(=O)CC(O)(O)C(F)(F)F [CHEMBL449775],4890 nM
7,COc1ccc(C(=O)C(=O)c2ccc(OC)cc2)cc1 [CHEMBL191513],3400 nM
8,O=C(Cc1ccccc1)C(=O)C(Br)c1ccccc1 (centres unmarked) [CHEMBL1812852],2630 nM
9,CCCCC(=O)C(=O)CCCC [CHEMBL1812855],46.6 nM
10,COc1cccc(C(=O)C(=O)c2cccc(OC)c2)c1 [CHEMBL435109],1540 nM
11,O=C(C(=O)C1CCCCC1)C1CCCCC1 [CHEMBL235287],38.5 nM
12,O=C(CC(=O)c1ccccc1)c1ccccc1 [DIBENZOYLMETHANE],26000 nM
13,O=C(C(=O)c1ccccn1)c1cccc(NC(=O)c2ccc(Cl)cc2Cl)c1 [CHEMBL1630808],279 nM
14,CCCCCCCCCCS(=O)(=O)CC(O)(O)C(F)(F)F [CHEMBL467451],397 nM
15,O=C(Nc1cccc(C(=O)C(=O)c2ccccn2)c1)c1ccc(C(F)(F)F)cc1 [CHEMBL1629724],437 nM
16,O=C(C(=O)c1ccsc1)c1ccsc1 [CHEMBL372716],1050 nM
17,CCCCC(=O)C(=O)c1ccccc1 [CHEMBL1812862],26.1 nM
18,O=C1C(=O)c2ccccc2-c2ccccc21 [9-10-PHENANTHRENEQUINONE],2.5 nM
19,O=C1C(=O)N2CCCc3cccc1c32 [CHEMBL395654],1540 nM
20,Cc1coc2c1C(=O)C(=O)c1c-2ccc2c(C)cccc12 [TANSHINONEI],26200 nM
21,O=C(C(=O)c1ccc2ccccc2c1)c1ccc2ccccc2c1 [CHEMBL189162],256 nM
22,O=C(C(=O)c1ccc([N+](=O)[O-])cc1)c1ccccc1 [CHEMBL192589],214 nM

row,Compound,Ki
1,C[C@H]1COC2=C1C(=O)C(=O)c1c2ccc2c1CCCC2(C)C [CRYPTOTANSHINONE],544 nM
2,O=C(O)[C@H]1O[C@@H](OC(=O)[C@H](c2ccccc2Cl)N2CCc3sccc3C2)[C@H](O)[C@@H](O)[C@@H]1O [CHEMBL3526940],24800 nM
3,O=C1Nc2c(Cl)ccc(Cl)c2C1=O [CHEMBL223039],590 nM
4,OC(O)(CSCCc1ccccc1)C(F)(F)F [CHEMBL510996],6900 nM
5,CCCCCCCCCCCCSCC(=O)C(F)(F)F [CHEMBL270375],39.1 nM
6,O=C1C(=O)N(Cc2ccccc2)c2ccccc21 [CHEMBL115581],1700 nM
7,O=C(C(=O)c1ccc(Cl)cc1)c1ccccc1 [CHEMBL192180],37 nM
8,CCCCCCCCCCCCN1C(=O)C(=O)c2ccccc21 [CHEMBL222644],10 nM
9,O=C1C(=O)N(CNc2ccc(Cl)cc2)c2ccccc21 [CHEMBL222712],610 nM
10,O=C(C(=O)c1cc(F)c(F)c(F)c1)c1cc(F)c(F)c(F)c1 [CHEMBL193180],405 nM
11,CCCCCCCCCC[S+]([O-])CC(O)(O)C(F)(F)F (centres unmarked) [CHEMBL464002],2620 nM
12,O=C(C(=O)c1ccco1)c1ccco1 [CHEMBL371181],3610 nM
13,CCCCCCCCC(=O)C(=O)CCCCCCCC [CHEMBL1812859],0.84 nM
14,O=C1Nc2cc(Cl)cc(Cl)c2C1=O [CHEMBL385800],890 nM
15,O=C1C(Cl)=C(Cl)C(=O)C(Cl)=C1Cl [CHLORANIL],83.9 nM
16,O=C1Cc2ccccc2C1=O [CHEMBL235288],5240 nM
17,O=C(c1ccccc1)C(O)c1ccccc1 (centres unmarked) [BENZOIN],30400 nM
18,O=S(=O)(Nc1ccc(NS(=O)(=O)c2ccc(Cl)cc2)cc1)c1ccc(Cl)cc1 [CHEMBL254426],13700 nM
19,O=C1C(=O)c2sccc2-c2ccsc21 [CHEMBL398109],150 nM
20,Cc1ccc(C(=O)Nc2cccc(C(=O)C(=O)c3ccccn3)c2)cc1 [CHEMBL1630810],1030 nM
21,COc1cc(NCN2C(=O)C(=O)c3ccccc32)cc(OC)c1OC [CHEMBL221362],19500 nM
22,O=C1C(=O)N(c2ccccc2)c2ccccc21 [PHENYLISATIN],23 nM

row,Compound,Ki
1,COc1ccc(C(=O)C(=O)c2ccccc2Cl)cc1OC [CHEMBL191822],3310 nM
2,CCC(=O)C(=O)c1ccccc1 [CHEMBL1812860],1550 nM
3,COc1ccc(C(=O)C(=O)c2ccccc2)cc1 [CHEMBL192474],174 nM
4,CCCCCCCCCCCCS(=O)(=O)CC(O)(O)C(F)(F)F [CHEMBL467450],371 nM
5,Cc1ccc(C(=O)C(=O)c2ccccc2)cc1[N+](=O)[O-] [CHEMBL191847],223 nM
6,CCCCSCC(=O)C(F)(F)F [CHEMBL402615],400 nM
7,CCCCCCCC(=O)C(=O)CCCCCCC [CHEMBL1812858],7.6 nM
8,CCCCCCCCS(=O)(=O)CC(O)(O)C(F)(F)F [CHEMBL460807],757 nM
9,CCCCCC[S+]([O-])CC(O)(O)C(F)(F)F (centres unmarked) [CHEMBL460808],39700 nM
10,O=C(C(=O)c1c(Cl)c(Cl)c(Cl)c(Cl)c1Cl)c1c(F)c(F)c(F)c(F)c1F [CHEMBL195713],1690 nM
11,O=C1C(=O)c2cccc3cccc1c23 [ACENAPHTHOQUINONE],31 nM
12,O=C(C(=O)c1cc(Br)cs1)c1cc(Br)cs1 [CHEMBL190672],20.8 nM
13,Cc1ccc(C(=O)C(=O)c2ccccc2)cc1C [CHEMBL193140],79.2 nM
14,O=C(C(=O)C(Br)c1ccccc1)C(Br)c1ccccc1 (centres unmarked) [CHEMBL1812851],107 nM
15,O=C(C(=O)c1cccs1)c1cccs1 [CHEMBL365445],433 nM
16,CCCCCC(=O)C(=O)c1ccccc1 [CHEMBL1812863],6.68 nM
17,O=C1C(=O)N(CCBr)c2ccccc21 [CHEMBL223000],290 nM
18,O=C1C(=O)c2cccnc2-c2ncccc21 [CHEMBL235504],5400 nM
19,CCCCCCCCCCCC[S+]([O-])CC(O)(O)C(F)(F)F (centres unmarked) [CHEMBL463556],953 nM
20,CCCC(=O)C(=O)CCC [CHEMBL1812854],8060 nM
21,O=C(Nc1cccc(C(=O)C(=O)c2ccccn2)c1)c1cccc(Cl)c1 [CHEMBL1630814],756 nM
22,CCCCC(=O)C(C)=O [CHEMBL364588],16900 nM

row,Compound,Ki
1,O=C(C(=O)c1ccc(CBr)cc1)c1ccccc1 [CHEMBL192241],77.6 nM
2,O=C(Cc1ccccc1)C(=O)Cc1ccccc1 [CHEMBL1812850],3080 nM
3,CC(C)(C)C1=CC(=O)C(=O)C(C(C)(C)C)=C1 [CHEMBL365161],88.6 nM
4,O=C1C(=O)N(CCI)c2ccccc21 [CHEMBL376518],130 nM
5,O=C(C(=O)c1ccc(F)cc1)c1ccc(F)cc1 [CHEMBL192410],230 nM
6,O=C(C(=O)c1ccc(Br)cc1)c1ccc(Br)cc1 [CHEMBL193228],66700 nM
7,Cc1ccc(C(=O)C(=O)c2ccc(C)cc2)cc1 [CHEMBL192625],535 nM
8,CCCCCCCCCCC(=O)C(F)(F)F [CHEMBL86668],76.8 nM
9,O=C1C(=O)c2ccc([N+](=O)[O-])c3c([N+](=O)[O-])ccc1c23 [CHEMBL235289],570 nM
10,Cc1cccc2c3c(ccc12)C1=C(C(=O)C3=O)[C@@H](C)CO1 [DIHYDROTANSHINONEI],398 nM
11,Cc1ccc(NCN2C(=O)C(=O)c3ccccc32)cc1 [CHEMBL222851],2650 nM
12,O=C(C(=O)c1ccc([N+](=O)[O-])cc1)c1ccc([N+](=O)[O-])cc1 [CHEMBL236340],9800 nM
13,O=C(Nc1cccc(C(=O)C(=O)c2ccccn2)c1)c1ccc(F)cc1 [CHEMBL1630816],381 nM
14,CC(C)C1=Cc2ccc3c(c2C(=O)C1=O)CCCC3(C)C [MILTIRONE],2530 nM
15,CCCCCCOCC(O)(O)C(F)(F)F [CHEMBL449475],1660 nM
16,O=C1C(=O)c2c3ccccc3cc3cccc1c23 [CHEMBL235503],1.5 nM
17,O=C1C(=O)N(CNc2ccc(Br)cc2)c2ccccc21 [CHEMBL385132],580 nM
18,O=C1Nc2cc(Cl)c(Cl)cc2C1=O [CHEMBL222988],21000 nM
19,COC(OC)(C(=O)c1ccccc1)c1ccccc1 [CHEMBL364734],15300 nM
20,O=C1Nc2c(ccc(Cl)c2Cl)C1=O [CHEMBL222292],9400 nM
21,Cc1ccc(C(=O)C(=O)c2ccc(Cl)cc2)cc1 [CHEMBL192252],159 nM
22,O=C1Nc2ccc(Br)cc2C1=O [CHEMBL115897],31700 nM

row,Compound,Ki
1,O=C1C(=O)N(Cc2ccc(Cl)c(Cl)c2)c2ccccc21 [CHEMBL375126],31 nM
2,CCCCCCCCSCC(=O)C(F)(F)F [CHEMBL89506],97.4 nM
3,O=C1C(=O)c2ccccc2CCc2ccccc21 [CHEMBL235931],2980 nM
4,O=C1C(=O)c2cccc3c2N(CCC3)C1=O [CHEMBL235290],5380 nM
5,O=C(CSCCc1ccccc1)C(F)(F)F [CHEMBL460809],63.3 nM
6,O=C1C=Cc2ccccc2C1=O [1-2-NAPHTHOQUINONE],930 nM
7,O=C1C(=O)N(CNc2ccccc2Br)c2ccccc21 [CHEMBL374758],36000 nM
8,CCCCCCCCCCSCC(=O)C(F)(F)F [CHEMBL270374],66.4 nM
9,O=C(O)c1ccc(C(=O)C(=O)c2ccccc2)cc1 [CHEMBL370059],524 nM
10,O=C1C(=O)C(Cl)=C(Cl)C(Cl)=C1Cl [CHEMBL364729],5440 nM
11,O=C1C(=O)N(Cc2ccc(Cc3ccc(CN4C(=O)C(=O)c5ccccc54)cc3)cc2)c2ccccc21 [CHEMBL222752],8 nM
12,O=C(C(=O)c1ccc(Cl)cc1)c1ccc(Cl)cc1 [CHEMBL192139],25100 nM
13,CC(=O)N1C(=O)C(=O)c2ccccc21 [CHEMBL223001],36000 nM
14,CCCCCCC(=O)C(=O)c1ccccc1 [CHEMBL1812864],2.19 nM
15,O=C1Nc2c(Cl)cccc2C1=O [CHEMBL222190],11400 nM
16,O=C(C(=O)c1ccc(Br)s1)c1ccc(Br)s1 [CHEMBL192592],142 nM
17,CCCCCCCC[S+]([O-])CC(O)(O)C(F)(F)F (centres unmarked) [CHEMBL460806],7400 nM
18,CCCC(=O)C(=O)c1ccccc1 [CHEMBL1812861],102 nM
19,O=C(C(=O)c1ccccn1)c1ccccn1 [CHEMBL373345],245 nM
